Experimental data taken from US20230321008A1, “INHIBITORS OF ACID SPHINGOMYELINASE FOR PREVENTING AND TREATING THE COVID-19 DISEASE” (priority 2020, published 2023).
Entries after “also recorded” stand apart in the source; their conditions may differ.

How the values were obtained:
[1] = molecular target: T1, acid sphingomyelinase (ASM) (Homo sapiens, UniProt P17405); conditions: cited from earlier work
T1 sequence (P17405 47-631): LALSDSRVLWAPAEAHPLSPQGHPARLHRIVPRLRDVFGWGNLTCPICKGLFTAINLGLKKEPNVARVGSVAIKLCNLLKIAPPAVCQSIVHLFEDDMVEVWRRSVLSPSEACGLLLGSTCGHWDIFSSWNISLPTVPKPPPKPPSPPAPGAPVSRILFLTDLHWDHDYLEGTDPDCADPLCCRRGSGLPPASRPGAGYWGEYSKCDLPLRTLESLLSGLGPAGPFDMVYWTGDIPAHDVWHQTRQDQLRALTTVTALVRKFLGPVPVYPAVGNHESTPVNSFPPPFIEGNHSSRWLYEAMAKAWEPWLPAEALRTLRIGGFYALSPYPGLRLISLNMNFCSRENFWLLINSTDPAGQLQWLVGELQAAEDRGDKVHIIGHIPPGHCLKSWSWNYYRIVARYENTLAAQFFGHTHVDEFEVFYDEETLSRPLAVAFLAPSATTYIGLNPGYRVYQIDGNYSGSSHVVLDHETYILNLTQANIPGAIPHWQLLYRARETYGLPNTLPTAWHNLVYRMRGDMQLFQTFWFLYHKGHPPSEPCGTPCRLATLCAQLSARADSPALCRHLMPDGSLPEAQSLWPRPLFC

[2] = test system: COVID-19; conditions: randomized double-blind controlled study; cited from earlier work
[3] = test system: severe COVID-19; experiment: Example 1: multicenter observational retrospective cohort study, FIASMA psychotropic medication use at baseline and intubation or death in patients with mental disorder; assay type: in vivo, human; conditions: patients with mental disorder hospitalized for severe COVID-19; vs not exposed
Excerpt: We conducted a multicenter observational retrospective cohort study at 36 AP-HP hospitals from the beginning of the epidemic in France, i.e. January 24th, until May 1st. We included all adults aged 18 years or over with a mental disorder who have been hospitalized in these medical centers for severe COVID-19. Mental disorder was defined as having at least one current International Statistical Classification of Diseases and Related Health Problems (ICD-10) diagnosis of mental disorder (F01-F99) during the visit or an ongoing prescription of any antidepressant, antipsychotic, or mood stabilizer (i.e. lithium or antiepileptic medications with mood stabilizing effects) for a psychiatric disorder at hospital admission. COVID-19 was ascertained by a positive reverse-transcriptase-polymerase-chain-reaction (RT-PCR) test from analysis of nasopharyngeal or oropharyngeal swab specimens. […]
We calculated frequencies of baseline characteristics described above in patients receiving or not receiving a FIASMA psychotropic medication and compared them using standardized mean differences (SMD). […]

[4] = test system: severe COVID-19; experiment: Example 2: multicenter observational retrospective cohort study, FIASMA medication use at baseline and intubation or death in patients hospitalized for severe COVID-19; assay type: in vivo, human; conditions: vs no FIASMA medication
Excerpt: We included all adults aged 18 years or over who have been hospitalized in these medical centers for severe COVID-19. COVID-19 was ascertained by a positive reverse-transcriptase-polymerase-chain-reaction (RT-PCR) test from analysis of nasopharyngeal or oropharyngeal swab specimens. Severe COVID-19 at admission was defined as having at least one of the following criteria: respiratory rate > 24 breaths/min or < 12 breaths/min, resting peripheral capillary oxygen saturation in ambient air < 90%, temperature > 40° C., systolic blood pressure < 100 mm Hg or high lactate levels. AP-HP clinical Data Warehouse initiatives ensure patient information and informed consent regarding the different approved studies through a transparency portal in accordance with European Regulation on data protection and authorization n°1980120 from National Commission for Information Technology and Civil Liberties (CNIL).
We used data from the AP-HP Health Data Warehouse (‘Entrepôt de Données de Santé (EDS)’). This warehouse contains all available clinical data on all inpatient visits for COVID-19 to any Greater Paris University hospital. The data included patient demographic characteristics, vital signs, laboratory test and RT-PCR test results, medication administration data, medication lists during current and past hospitalizations in AP-HP hospitals, current diagnoses, discharge disposition, and death certificates.
We obtained the following data for each patient at the time of the hospitalization: sex; age, which was categorized into 4 classes based on the OpenSAFELY study results (i.e. 18-50, 51-70, 71-80, 81+); hospital, which was categorized into 4 classes following the administrative clustering of AP-HP hospitals in Paris and its suburbs based on their geographical location (i.e., AP-HP Centre - Paris University, Henri Mondor University Hospitals and at home hospitalization; AP-HP Nord and Hôpitaux Universitaires Paris Seine-Saint-Denis; AP-HP Paris Saclay University; and AP-HP Sorbonne University); obesity, which was defined as having a body mass index higher than 30 kg/m^2 or an International Statistical Classification of Diseases and Related Health Problems (ICD-10) diagnosis code for obesity (E66.0, E66.1, E66.2, E66.8, E66.9); self-reported current smoking status; and any medication prescribed according to compassionate use or as part of a clinical trial (e.g. hydroxychloroquine, azithromycin, remdesivir, tocilizumab, sarilumab, or dexamethasone). To take into account possible confounding by indication bias for FIASMA medication, we recorded whether patients had any current diagnosis, based on ICD-10 diagnosis codes, for neoplasms and diseases of the blood (C00-D89); mental disorders (F01-F99); diseases of the nervous system (G00-G99); cardiovascular disorders (I00-I99); respiratory disorders (J00-J99); digestive disorders (K00-K95); dermatological disorders (L00-L99); diseases of the musculoskeletal system (M00-M99); diseases of the genitourinary system (N00-N99); endocrine disorders (E00-E89); and eye-ear-nose-throat disorders (H00-H95).
All medical notes and prescriptions are computerized in Greater Paris University hospitals. Medications including their dosage, frequency, date, and mode of administration were identified from medication administration data or scanned handwritten medical prescriptions, through two deep learning models based on BERT contextual embeddings, one for the medications and another for their mode of administration. The model was trained on the APmed corpus, a previously annotated dataset for this task. Extracted medications names were then normalized to the Anatomical Therapeutic Chemical (ATC) terminology using approximate string matching.
FIASMA medication use was defined as receiving at least one FIASMA medication at study baseline, i.e. within the first 24 hours of hospital admission, and before the end of the index hospitalization, intubation or death.

[5] = test system: COVID-19; experiment: Example 3: multicenter observational retrospective study, hydroxyzine use and death in patients admitted to hospital with COVID-19; assay type: in vivo, human
[6] = molecular target: serotonin 5-HT2A-receptor (Homo sapiens, UniProt P28223); conditions: cited from earlier work
serotonin 5-HT2A-receptor, sequence (P28223 whole entry): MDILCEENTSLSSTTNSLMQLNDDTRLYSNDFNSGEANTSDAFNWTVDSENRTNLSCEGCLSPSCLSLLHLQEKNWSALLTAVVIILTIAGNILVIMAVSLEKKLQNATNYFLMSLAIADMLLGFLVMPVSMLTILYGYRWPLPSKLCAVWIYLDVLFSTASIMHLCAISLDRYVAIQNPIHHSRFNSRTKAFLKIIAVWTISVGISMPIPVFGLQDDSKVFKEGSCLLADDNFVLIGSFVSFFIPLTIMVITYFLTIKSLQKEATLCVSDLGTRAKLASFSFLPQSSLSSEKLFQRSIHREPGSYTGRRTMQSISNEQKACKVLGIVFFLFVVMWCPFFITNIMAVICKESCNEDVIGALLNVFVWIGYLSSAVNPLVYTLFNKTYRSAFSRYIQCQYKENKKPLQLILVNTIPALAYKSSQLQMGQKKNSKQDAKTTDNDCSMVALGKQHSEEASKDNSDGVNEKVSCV

[7] = molecular target: dopamine D2 receptor (Homo sapiens, UniProt P14416); conditions: cited from earlier work
dopamine D2 receptor, sequence (P14416 whole entry, species assumed): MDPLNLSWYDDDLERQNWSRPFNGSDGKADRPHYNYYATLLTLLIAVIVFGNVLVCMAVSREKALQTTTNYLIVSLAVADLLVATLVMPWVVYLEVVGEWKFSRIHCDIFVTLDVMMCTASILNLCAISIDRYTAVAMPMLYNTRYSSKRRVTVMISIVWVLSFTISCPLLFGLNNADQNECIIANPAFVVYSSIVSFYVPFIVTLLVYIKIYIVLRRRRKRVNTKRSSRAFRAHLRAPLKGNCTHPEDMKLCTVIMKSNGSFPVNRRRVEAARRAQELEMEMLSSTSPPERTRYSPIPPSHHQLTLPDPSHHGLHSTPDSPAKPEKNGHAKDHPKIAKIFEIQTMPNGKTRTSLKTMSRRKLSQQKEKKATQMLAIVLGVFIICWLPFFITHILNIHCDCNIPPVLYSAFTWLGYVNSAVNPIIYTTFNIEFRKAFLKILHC

[8] = test system: α1-adrenergic receptor; conditions: cited from earlier work
[9] = test system: ceramide-enriched membrane domains; conditions: in vitro; cited from earlier work
[10] = test system: SARS-CoV-2; conditions: cited from earlier work
[11] = test system: SARS-CoV-2; conditions: oral use in healthy volunteers; cited from earlier work
[12] = test system: SARS-CoV-2; conditions: in vitro; cited from earlier work
[13] = test system: SARS-CoV-2; conditions: cited from earlier work; remark: listed apart in the source

Row | Compound | In vitro inhibition of acid sphingomyelinase (in words) [1] | Association of use at baseline with risk of intubation or death (in words) [3] | Association of use at baseline with risk of intubation or death (in words) [4] | Formation of ceramide-enriched membrane domains (in words) [9] | Infection of Vero cells with SARS-CoV-2 (in words) [10] | Inhibition of viral replication (in words) [12] | further results
1 | COCCCC/C(=N\OCCN)c1ccc(C(F)(F)F)cc1 [fluvoxamine] | in vitro inhibit acid sphingomyelinase with varying degrees |  |  |  |  |  | Effect on COVID-19 disease progression (in words) [2]: significant protective effects on COVID-19 disease progression
2 | OCCOCCN1CCN(C(c2ccccc2)c2ccc(Cl)cc2)CC1 (stereo not drawn) [Hydroxyzine, 2-[2-[4-[(4-chlorophenyl)-phenylmethyl]piperazin-1-yl]ethoxy]ethanol] |  | reached statistical significance across all main and sensitivity analyses | reached statistical significance across all main and sensitivity analyses |  |  |  | Association of cumulative dose with risk of death (in words) ([5]; higher rather than lower cumulative doses): significantly associated with lower risk of death; also recorded: significantly stronger at higher rather than lower cumulative doses; Association of use with risk of death (in words) ([5]; hospitalized adult patients with COVID-19): significantly and substantially associated with reduced risk of death; also recorded: significantly associated with reduced mortality in patients hospitalized for COVID-19; also recorded: significantly and substantially associated with lower risk of death; Antagonist action at the serotonin 5-HT2A-receptor (in words) [6]: weakly acts as an antagonist; Antagonist action at the dopamine D2 receptor (in words) [7]: weakly acts as an antagonist; Antagonist action at the α1-adrenergic receptor (in words) [8]: weakly acts as an antagonist
3 | CN(C)CCC=C1c2ccccc2CCc2ccccc21 [Amitriptyline, amitriptyline] | inhibited ASM; also recorded: in vitro inhibit acid sphingomyelinase with varying degrees |  |  | inhibited ASM and the formation of ceramide-enriched membrane domains | prevented Vero cells from being infected with SARS-CoV-2 |  | Infection of freshly isolated nasal epithelial cells with SARS-CoV-2 (in words) [11]: efficiently blocked infection of freshly isolated nasal epithelial cells with SARS-CoV-2
4 | CN(C)CCC[C@@]1(c2ccc(F)cc2)OCc2cc(C#N)ccc21 [Escitalopram, escitalopram] | inhibited ASM; also recorded: in vitro inhibit acid sphingomyelinase with varying degrees | reached statistical significance across all main and sensitivity analyses | reached statistical significance across all main and sensitivity analyses | inhibited ASM and the formation of ceramide-enriched membrane domains | prevented Vero cells from being infected with SARS-CoV-2 | inhibition of viral replication was not observed | 
5 | CNCCC(Oc1ccc(C(F)(F)F)cc1)c1ccccc1 (stereo not drawn) [Fluoxetine, fluoxetine] | inhibited ASM; also recorded: in vitro inhibit acid sphingomyelinase with varying degrees |  |  | inhibited ASM and the formation of ceramide-enriched membrane domains | prevented Vero cells from being infected with SARS-CoV-2 | inhibition of viral replication | Infection of cultured epithelial cells with SARS-CoV-2 (in words) [13]: inhibition of the infection of cultured epithelial cells with SARS-CoV-2
